Experimental data: US6348468B1, “Pyridazine compounds and compositions containing the same” (Kowa Co., Ltd., priority 1997, dated 2002)
pIC50: −log10 of the molar value.

Assays:
[1] = tested on: Interleukin-1β (IL-1β) Production; assay: Inhibitory activity against interleukin-1β production (LPS-stimulated HL-60 cells, ELISA); format: cell-based; settings: Homo sapiens, 72 h, lipopolysaccharide 10 μg/ml, culturing for 3 days
Experimental: HL-60 cells were cultured for 4 days until confluence on RPMI 1640 medium with 10% fetal bovine serum (FBS) added thereto. The HL-60 cells were centrifuged. The supernatant was discarded, and the cells were then suspended at 1×10^6 cells/ml on RPMI 1640 medium with 3% FBS, and lipopolysaccharide was added to give a final concentration of 10 μg/ml. The culture was inoculated at 1 ml/well to a 24-well plate. A test sample was added at 1 μl/well, followed by culturing for 3 days. Three days later, the amount of interleukin-1β in each of the cultures was measured by ELISA. Its IC50 value was determined by a comparison in yield with a control to which no test sample was added.

Row | Structure (SMILES) | pIC50 [1] | melting point [°C]
1 | COc1ccc(-c2cc(=O)n(CCN(C)C)nc2-c2ccc(OC)cc2)cc1 [Comp. Comp'd 3, reference compound] | < 4.00 | 
2 | COc1ccc(-c2cc(=O)[nH]nc2-c2ccc(OC)cc2)cc1 [Comp. Comp'd 4, reference compound] | 4.50 | 
3 | COc1ccc(-c2cc(=O)n(CC=Cc3ccc(Cl)cc3)nc2-c2ccc(OC)cc2)cc1 [Example 12, 5,6-bis(4-methoxyphenyl)-2-(4-chlorocinnamyl)-2H-pyridazin-3-one] | 7.00 | 
4 | COc1ccc(-c2cc(=O)n(Cc3ccccc3)nc2-c2ccc(OC)cc2)cc1 [Example 13, 5,6-bis(4-methoxyphenyl)-2-benzyl-2H-pyridazin-3-one] | 6.59 | 
5 | COc1ccc(Cn2nc(-c3ccc(OC)cc3)c(-c3ccc(OC)cc3)cc2=O)cc1 [Example 14, 5,6-bis(4-methoxyphenyl)-2-(4-methoxybenzyl)-2H-pyridazin-3-one] | 7.03 | 
6 | COc1ccc(-c2cc(=O)n(Cc3cc(OC)c(OC)c(OC)c3)nc2-c2ccc(OC)cc2)cc1 [Example 16, 5,6-bis(4-methoxyphenyl)-2-(3,4,5-trimethoxybenzyl)-2H-pyridazin-3-one] | 6.64 | 
7 | COc1ccc(-c2cc(=O)n(CCCc3ccccc3)nc2-c2ccc(OC)cc2)cc1 [Example 19, 5,6-bis(4-methoxyphenyl)-2-(3-phenylpropyl)-2H-pyridazin-3-one] | 7.10 | 
8 | COc1ccc(CCCn2nc(-c3ccc(OC)cc3)c(-c3ccc(OC)cc3)cc2=O)cc1 [Example 23, 5,6-bis(4-methoxyphenyl)-2-[3-(4-methoxyphenyl)propyl]-2H-pyridazin-3-one] | 6.44 | 
9 | COc1ccc(-c2cc(=O)n(CC=Cc3ccc(C)cc3)nc2-c2ccc(OC)cc2)cc1 [Example 24, 5,6-bis(4-methoxyphenyl)-2-(4-methylcinnamyl)-2H-pyridazin-3-one] | 6.70 | 
10 | COc1ccc(-c2cc(=O)n(CCCc3ccc(C)cc3)nc2-c2ccc(OC)cc2)cc1 [Example 25, 5,6-bis(4-methoxyphenyl)-2-[3-(4-methylphenyl)propyl]-2H-pyridazin-3-one] | 6.74 | 
11 | COc1ccc(-c2cc(=O)n(Cc3ccc(F)cc3)nc2-c2ccc(OC)cc2)cc1 [Example 26, 5,6-bis(4-methoxyphenyl)-2-(4-fluorobenzyl)-2H-pyridazin-3-one] | 6.82 | 
12 | COc1ccc(-c2cc(=O)n(Cc3ccc(F)cc3F)nc2-c2ccc(OC)cc2)cc1 [Example 27, 5,6-bis(4-methoxyphenyl)-2-(2,4-difluorobenzyl)-2H-pyridazin-3-one] | 6.74 | 
13 | COc1ccc(-c2cc(=O)n(Cc3ccc(OC)c(F)c3)nc2-c2ccc(OC)cc2)cc1 [Example 28, 5,6-bis(4-methoxyphenyl)-2-(3-fluoro-4-methoxybenzyl)-2H-pyridazin-3-one] | 6.54 | 
14 | COc1ccc(-c2cc(=O)n(CC=Cc3ccc(F)cc3)nc2-c2ccc(OC)cc2)cc1 [Example 30, 5,6-bis(4-methoxyphenyl)-2-(4-fluorocinnamyl)-2H-pyridazin-3-one] | 6.77 | 
15 | COc1ccc(-c2cc(=O)n(CC=Cc3ccc(F)cc3F)nc2-c2ccc(OC)cc2)cc1 [Example 31, 5,6-bis(4-methoxyphenyl)-2-(2,4-difluorocinnamyl)-2H-pyridazin-3-one] | 7.02 | 
16 | COc1ccc(-c2cc(=O)n(Cc3ccc(Cl)c(Cl)c3)nc2-c2ccc(OC)cc2)cc1 [Example 35, 5,6-bis(4-methoxyphenyl)-2-(3,4-dichlorobenzyl)-2H-pyridazin-3-one] | 6.68 | 
17 | COc1ccc(-c2cc(=O)n(CC=Cc3ccc(Cl)cc3Cl)nc2-c2ccc(OC)cc2)cc1 [Example 40, 5,6-bis(4-methoxyphenyl)-2-(2,4-dichlorocinnamyl)-2H-pyridazin-3-one] | 6.57 | 
18 | CSc1ccc(-c2nn(Cc3cccnc3)c(=O)cc2-c2ccc(Cl)cc2)cc1 [Example 55, 5-(4-chlorophenyl)-6-[4-(methylthio)phenyl]-2-(3-pyridylmethyl)-2H-pyridazin-3-one] | 6.60 | 
19 | COc1ccc(-c2nn(Cc3ccc(Cl)cc3)c(=O)cc2-c2ccncc2)cc1 [Example 78, 2-(4-chlorobenzyl)-6-(4-methoxyphenyl)-5-(4-pyridyl)-2H-pyridazin-3-one] | 6.41 | 
20 | COc1ccc(-c2cc(=S)n(Cc3ccc(F)cc3F)nc2-c2ccc(OC)cc2)cc1 [Example 126, 5,6-bis(4-methoxyphenyl)-2-(2,4-difluorobenzyl)-2H-pyridazine-3-thione] | 6.82 | 
21 | COc1ccc(-c2cc(=S)n(Cc3cccnc3)nc2-c2ccc(OC)cc2)cc1 [Example 128, 5,6-bis(4-methoxyphenyl)-2-(3-pyridylmethyl)-2H-pyridazine-3-thione] | 6.51 | 

Row | Structure (SMILES) | pIC50 [1] | melting point [°C]
22 | CSc1ccc(-c2nn(Cc3cccnc3)c(=S)cc2-c2ccc(Cl)cc2)cc1 [Example 135, 5-(4-chlorophenyl)-6-[4-(methylthio)phenyl]-2-(3-pyridylmethyl)-2H-pyridazine-3-thione] | 6.41 | 
23 | CSc1ccc(-c2nn(Cc3ccc(Cl)cc3Cl)c(=S)cc2-c2ccc(F)cc2)cc1 [Example 141, 2-(2,4-dichlorobenzyl)-5-(4-fluorophenyl)-6-[4-(methylthio)phenyl]-2H-pyridazine-3-thione] |  | 154 to 154.2
24 | COc1ccc(-c2cc(=O)n(Cc3ccccc3)nc2-c2ccc(OC)c(F)c2)cc1 [Example 144, 2-benzyl-6-(3-fluoro-4-methoxyphenyl)-5-(4-methoxyphenyl)-2H-pyridazin-3-one] |  | 136.6 to 137.8
25 | COc1ccc(-c2cc(=O)n(CC=Cc3ccc(Cl)cc3)nc2-c2ccc(OC)c(F)c2)cc1 [Example 145, 2-(4-chlorocinnamyl)-6-(3-fluoro-4-methoxyphenyl)-5-(4-methoxyphenyl)-2H-pyridazin-3-one] |  | 144 to 145.4
26 | CCn1nc(-c2ccc(OC)c(F)c2)c(-c2ccc(OC)cc2)cc1=O [Example 146, 2-ethyl-6-(3-fluoro-4-methoxyphenyl)-5-(4-methoxyphenyl)-2H-pyridazin-3-one] |  | 122.6 to 123.5
27 | COc1ccc(-c2cc(=O)n(CC(C)C)nc2-c2ccc(OC)c(F)c2)cc1 [Example 147, 6-(3-fluoro-4-methoxyphenyl)-2-isobutyl-5-(4-methoxyphenyl)-2H-pyridazin-3-one] |  | 86.8 to 87.4
28 | COc1ccc(-c2cc(=O)n(CC3CC3)nc2-c2ccc(OC)c(F)c2)cc1 [Example 148, 2-cyclopropylmethyl-6-(3-fluoro-4-methoxyphenyl)-5-(4-methoxyphenyl)-2H-pyridazin-3-one] |  | 132.2 to 132.6
29 | COc1ccc(C2=NNC(=O)CC2c2ccc(OC)c(F)c2)cc1 (centres unmarked) [Example 149, 4,5-dihydro-5-(3-fluoro-4-methoxyphenyl)-6-(4-methoxyphenyl)-2H-pyridazin-3-one] |  | 171.2 to 173.4
30 | COc1ccc(-c2n[nH]c(=O)cc2-c2ccc(OC)c(F)c2)cc1 [Example 150, 5-(3-fluoro-4-methoxyphenyl)-6-(4-methoxyphenyl)-2H-pyridazin-3-one] |  | 212.8 to 213.4
31 | COc1ccc(-c2nn(Cc3ccccc3)c(=O)cc2-c2ccc(OC)c(F)c2)cc1 [Example 151, 2-benzyl-5-(3-fluoro-4-methoxyphenyl)-6-(4-methoxyphenyl)-2H-pyridazin-3-one] |  | 109.6 to 111.6
32 | COc1ccc(-c2nn(CC=Cc3ccc(Cl)cc3)c(=O)cc2-c2ccc(OC)c(F)c2)cc1 [Example 152, 2-(4-chlorocinnamyl)-5-(3-fluoro-4-methoxyphenyl)-6-(4-methoxyphenyl)-2H-pyridazin-3-one] |  | 109.2 to 111
33 | CCn1nc(-c2ccc(OC)cc2)c(-c2ccc(OC)c(F)c2)cc1=O [Example 153, 2-ethyl-5-(3-fluoro-4-methoxyphenyl)-6-(4-methoxyphenyl)-2H-pyridazin-3-one] |  | 161.7 to 162.2
34 | COc1ccc(-c2nn(CC(C)C)c(=O)cc2-c2ccc(OC)c(F)c2)cc1 [Example 154, 5-(3-fluoro-4-methoxyphenyl)-2-isobutyl-6-(4-methoxyphenyl)-2H-pyridazin-3-one] |  | 124.6 to 125
35 | COc1ccc(-c2nn(CC3CC3)c(=O)cc2-c2ccc(OC)c(F)c2)cc1 [Example 155, 2-cyclopropylmethyl-5-(3-fluoro-4-methoxyphenyl)-6-(4-methoxyphenyl)-2H-pyridazin-3-one] |  | 135.2 to 135.7
36 | COc1ccc(C2=NNC(=O)CC2c2ccc(OC)c(F)c2)cc1F (centres unmarked) [Example 156, 5,6-bis(3-fluoro-4-methoxyphenyl)-4,5-dihydro-2H-pyridazin-3-one] |  | 195.7 to 197.7
37 | COc1ccc(-c2cc(=O)[nH]nc2-c2ccc(OC)c(F)c2)cc1F [Example 157, 5,6-bis(3-fluoro-4-methoxyphenyl)-2H-pyridazin-3-one] |  | 204.8 to 205.7
38 | COc1ccc(-c2cc(=O)n(Cc3ccccc3)nc2-c2ccc(OC)c(F)c2)cc1F [Example 158, 2-benzyl-5,6-bis(3-fluoro-4-methoxyphenyl)-2H-pyridazin-3-one] |  | 114.1 to 115.2
39 | COc1ccc(-c2cc(=O)n(CC=Cc3ccc(Cl)cc3)nc2-c2ccc(OC)c(F)c2)cc1F [Example 159, 5,6-bis(3-fluoro-4-methoxyphenyl)-2-(4-chlorocinnamyl)-2H-pyridazin-3-one] |  | 72.5 to 74.9
40 | COc1ccc(-c2cc(=O)n(CC(C)C)nc2-c2ccc(OC)c(F)c2)cc1F [Example 161, 5,6-bis(3-fluoro-4-methoxyphenyl)-2-isobutyl-2H-pyridazin-3-one] |  | 154 to 154.5
41 | COc1ccc(-c2cc(=O)n(CC3CC3)nc2-c2ccc(OC)c(F)c2)cc1F [Example 162, 5,6-bis(3-fluoro-4-methoxyphenyl)-2-cyclopropylmethyl-2H-pyridazin-3-one] |  | 142.3 to 142.7
